Assay results taken from patent publication US20240317722A1, “HETEROARYL-3-PIPERIDINEDIONE COMPOUND AND USE THEREOF” (Medshine Discovery Inc., priority 2021, published 2024).

Legend:
DMS114 = assay: Anti-proliferative effect in DMS114 (CellTiter-Glo); type: cell-based; details: DMS114, 3 days; for IC50: Homo sapiens, DMS-114, 72 h
Description: This assay studied the inhibitory effect of the compounds on cell proliferation by detecting the effect of the test compounds on the in vitro activity of tumor cells NCI-H1581, DMS114, NCI-H69 and NCI-H526.
The tumor cell lines were cultured in an incubator at 37° C., 5% CO2 or 0% CO2 according to the above culture conditions. The cells were periodically passaged, and cells in logarithmic growth phase were taken for plating. • 2. Cell plating • (1). Cells were stained with trypan blue and viable cells were counted.
• (3). 100 μL of cell suspension was added to each well of the culture plate, and culture medium without cells was added to the blank control well. • (4). The plate was incubated overnight in an incubator at 37° C., 5% CO2 or 0% CO2, and 100% relative humidity. • 3. Preparation of compound stock solution
Preparation of 1000× compound stock solution: Compound was dissolved in DMSO to 10 mM, then a portion was taken out and diluted to 1000 times the highest acting concentration. The diluted stock solution was dispensed for later use. • 4. Preparation of 5× compound working solution and treatment of cells with compounds. The working solutions were prepared freshly at each time for use. • (1). Preparation of 5× compound working solution: 119.4 μL of cell culture medium was added to a 96-well plate with a V-shaped bottom. 96 μL of DMSO-cell culture medium mix solution (with DMSO content of 0.5%) was added to subsequent gradient wells. 0.6 μL of the compound from the 1000× compound stock solution was added to the cell culture medium in the 96-well plate, and mixed to uniform with a pipette. A pipette was used to draw 24 μL of the compound-cell culture medium mixture into subsequent wells, and the mixture was mixed well by a pipette each time. • (2). Dosing: 25 μL of 5× compound working solution was added to the cell culture plate. 25 μL of DMSO-cell culture medium mix solution (with DMSO content of 0.5%) was added to the vehicle control and blank control. • (3). The 96-well cell plate was placed back into the incubator and cultured for 3 days. • 5. CellTiter-Glo luminescence cell viability detection
The following steps were performed according to the instruction of Promega CellTiter-Glo luminescence cell viability detection kit (Promega-G7573). • (1). The CellTiter-Glo buffer was thawed and allowed to stand to reach room temperature; • (2). CellTiter-Glo substrate was allowed to stand to reach room temperature; • (3). 10 mL of CellTiter-Glo buffer was added to CellTiter-Glo substrate in a bottle to dissolve the substrate to formulate CellTiter-Glo working solution; • (4). […] The culture plates were left at room temperature for 10 minutes to stabilize the luminescence signal; • (9). The luminous signal was detected on the 2104 En Vision plate reader. • 6. […]

[1] = tested on: human triple-negative breast cancer MDA-MB-231 cells; assay: In vivo pharmacodynamic study, subcutaneous xenograft tumor Balb/c nude mouse model of MDA-MB-231 cells; design: species or system Balb/c nude mice; details: for Tumor volume (Day 0): Day 0 (grouping); for in vivo efficacy on the xenograft tumor model (in words): MDA-MB-231 xenograft, oral
Description: Cell culture: Human triple-negative breast cancer MDA-MB-231 cells (ATCC-HTB-26) were cultured in monolayer in vitro. The culture conditions were RPMI-1640 medium with 10% fetal bovine serum in an incubator at 37° C. and 5% CO2. Conventional digestion with trypsin-EDTA was performed once every two days for passage. When the cell saturation was 80%-90% and the number met the requirement, the cells were collected, counted, and inoculated.
Assay animals: Balb/c nude mice, female, 6 weeks old upon arrival, purchased from Shanghai Bikai Experimental Animal Co., Ltd.
Cell inoculation: 0.2 mL (5×10^6 cells) of MDA-MB-231 cells (with matrigel, v/v 1:1) were subcutaneously inoculated into the right back of each mouse. The grouping for administration was started when the average tumor volume reached 110 mm^3. One dosing cycle was seven days, with administration once a day and an interval of 24 hours. The test compound was administered orally for a total of four cycles. The dosages of test compound WX005 were 10 mg/kg, 30 mg/kg and 100 mg/kg respectively, and the dosage of WX013 was 30 mg/kg respectively. Tumor diameter was measured twice a week with a vernier caliper. Tumor volume was calculated by the following formula: V=0.5a×b^2, where a and b are the long and short diameters of the tumor, respectively. The anti-tumor efficacy of compounds was evaluated by TGI (%) or relative tumor proliferation rate T/C (%). Relative tumor proliferation rate T/C (%)=TRTV/CRTV×100% (TRTV: average RTV of the treatment group; CRTV: average RTV of the negative control group). The relative tumor volume (RTV) was calculated based on the results of tumor measurement by the calculation formula: RTV=Vt/V0, where V0 is the tumor volume measured at grouping for administration (i.e., D0), and Vt is the tumor volume at a certain measurement, and TRTV and CRTV are taken on the same day.

Row | SMILES | Max. IR (DMS114) | IC50 (DMS114) | Tumor volume (Day 0) ([1]; 10 mg/kg orally once a day) | Relative tumor proliferation rate T/C (Day 27) ([1]; 10 mg/kg orally once a day) | TGI (Day 27) ([1]; 10 mg/kg orally once a day) | Tumor volume (Day 27) ([1]; 10 mg/kg orally once a day) | in vivo efficacy on the xenograft tumor model (in words) [1] | Tumor volume (Day 0) ([1]; 30 mg/kg orally once a day) | Relative tumor proliferation rate T/C (Day 27) ([1]; 30 mg/kg orally once a day) | TGI (Day 27) ([1]; 30 mg/kg orally once a day) | Tumor volume (Day 27) ([1]; 30 mg/kg orally once a day)
1 | COCCOc1cc(NC(=O)NCc2ccc3c(C4CCC(=O)NC4=O)coc3c2)cc(Cl)c1C (centres unmarked) [WX005] | 89.45% | 6.1 nM | 108.29 mm^3 | 0% | 114.91% | 0 mm^3 | significant tumor shrinkage effect |  |  |  | 
2 | COCCOc1cc(NC(=O)NCc2ccc3c(C4CCC(=O)NC4=O)noc3c2)cc(Cl)c1C (centres unmarked) [WX013] | 87.56% | 2.1 nM |  |  |  |  | significant tumor shrinkage effect | 108.69 mm^3 | 0% | 114.97% | 0 mm^3
